biological target: Endothelial lipase (EL) (Homo sapiens (Human), UniProt Q9Y5X9); assay: Endothelial lipase (EL) enzymatic assay with fluorescent substrate A10070 in DMPG vesicles; assay type: biochemical; settings: not given
Method in brief: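 Substrate A10070 sits in sonicated DMPG vesicles at 0.11 mole fraction. Lipase and compound preincubated 30 min, 37° C, in HEPES pH 8.0 buffer with CaCl2.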

Sequence of Endothelial lipase (EL) (Q9Y5X9 21-500): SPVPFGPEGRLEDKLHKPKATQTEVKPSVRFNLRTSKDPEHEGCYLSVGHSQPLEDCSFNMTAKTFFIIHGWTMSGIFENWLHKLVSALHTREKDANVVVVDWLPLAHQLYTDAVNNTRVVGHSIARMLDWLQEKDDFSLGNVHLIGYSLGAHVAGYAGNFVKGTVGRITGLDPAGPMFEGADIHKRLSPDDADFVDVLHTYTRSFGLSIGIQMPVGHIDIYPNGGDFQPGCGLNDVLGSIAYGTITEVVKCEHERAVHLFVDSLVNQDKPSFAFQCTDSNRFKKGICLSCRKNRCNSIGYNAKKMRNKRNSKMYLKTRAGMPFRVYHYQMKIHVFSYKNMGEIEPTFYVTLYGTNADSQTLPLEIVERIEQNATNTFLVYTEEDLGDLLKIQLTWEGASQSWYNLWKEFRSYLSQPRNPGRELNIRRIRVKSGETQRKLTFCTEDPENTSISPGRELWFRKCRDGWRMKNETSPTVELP

Row | IC50 [nM] | SMILES
1 | 13 | COCCS(=O)(=O)C(C(=O)NCC(=O)NC1CC1)c1nc2ccc(-c3cccc(N(C)C(=O)OC)c3)cc2s1 (stereo not drawn) [Example 545, methyl N-{3-[2-({[(cyclopropyl-carbamoyl)methyl]carbamoyl}(2-methoxyethane-sulfonyl)methyl)-1,3-benzothiazol-6-yl]phenyl}-N-methylcarbamate]
2 | 51 | COCCS(=O)(=O)C(C(=O)NCC(=O)NC1CC1)c1nc2cc(F)c(-c3cccc(C(=O)N(C)C)c3)cc2s1 (stereo not drawn) [Example 177, 3-[2-({[(cyclopropyl-carbamoyl)methyl]carbamoyl}(2-methoxyethane-sulfonyl)methyl)-5-fluoro-1,3-benzothiazol-6-yl]-N,N-dimethyl-benzamide]
3 | 2 | COCCS(=O)(=O)C(C(=O)NCC(=O)NC1CC1)c1nc2cc(C)c(-c3ccc4[nH]c(=O)ccc4c3)cc2s1 (stereo not drawn) [Example 151, N-[(cyclopropyl-carbamoyl)methyl]-2-(2-methoxyethane-sulfonyl)-2-[5-methyl-6-(2-oxo-1,2-dihydroquinolin-6-yl)-1,3-benzothiazol-2-yl]acetamide]
4 | 21 | COCCS(=O)(=O)C(C(=O)NCC(=O)NC1CC1)c1nc2cc(-c3ccn(C)c(=O)c3)ccc2s1 (stereo not drawn) [Example 336, N-[(cyclopropyl-carbamoyl)methyl]-2-(2-methoxyethane-sulfonyl)-2-[5-(1-methyl-2-oxo-1,2-dihydropyridin-4-yl)-1,3-benzothiazol-2-yl]acetamide]
5 | 130 | CN(C)S(=O)(=O)C(C(=O)NCC(=O)NC1CC1)c1nc2c(F)cc(-c3cccc(-n4cccn4)c3)cc2s1 (stereo not drawn) [Example 505, N-[(cyclopropyl-carbamoyl)methyl]-2-(dimethyl-sulfamoyl)-2-{4-fluoro-6-[3-(1H-pyrazol-1-yl)phenyl]-1,3-benzothiazol-2-yl}acetamide]
6 | 11 | Cc1ncc(-c2cc3sc(C(C(=O)NCC(=O)NC4CC4)S(=O)(=O)C(C)C)nc3cc2F)cn1 (stereo not drawn) [Example 231, N-[(cyclopropyl-carbamoyl)methyl]-2-[5-fluoro-6-(2-methylpyrimidin-5-yl)-1,3-benzothiazol-2-yl]-2-(propane-2-sulfonyl) acetamide]
7 | 27 | COCCS(=O)(=O)C(C(=O)NCC(=O)NC1CC1)c1nc2ccc(-c3ccc(COC)cc3)cc2s1 (stereo not drawn) [Example 308, N-[(cyclopropyl-carbamoyl)methyl]-2-(2-methoxyethane-sulfonyl)-2-{6-[4-(methoxymethyl)phenyl]-1,3-benzothiazol-2-yl}acetamide]
8 | 26 | COCCS(=O)(=O)C(C(=O)NCC(=O)NC1CC1)c1nc2c(F)cc(-c3ccc(C(F)(F)F)nc3)cc2s1 (stereo not drawn) [Example 217, N-[(cyclopropyl-carbamoyl)methyl]-2-{4-fluoro-6-[6-(trifluoromethyl)pyridin-3-yl]-1,3-benzothiazol-2-yl}-2-(2-methoxyethane-sulfonyl) acetamide]
9 | 131 | COCCS(=O)(=O)C(C(=O)NCC(=O)NC1CC1)c1nc2cc(-c3cnc(-n4cccn4)nc3)c(F)cc2s1 (stereo not drawn) [Example 131, N-[(cyclopropyl-carbamoyl)methyl]-2-{6-fluoro-5-[2-(1H-pyrazol-1-yl)pyrimidin-5-yl]-1,3-benzothiazol-2-yl}-2-(2-methoxyethane-sulfonyl) acetamide]
10 | 49 | COCCS(=O)(=O)C(C(=O)NCC(=O)NC1CC1)c1nc2cc(-c3ccncc3Cl)ccc2s1 (stereo not drawn) [Example 80, 2-[5-(3-chloropyridin-4-yl)-1,3-benzothiazol-2-yl]-N-[(cyclopropyl-carbamoyl)methyl]-2-(2-methoxyethane-sulfonyl) acetamide]
11 | 23 | COCCS(=O)(=O)C(C(=O)NCC(=O)NC1CC1)c1nc2ccc(-c3ccnc(C(F)(F)F)c3)cc2s1 (stereo not drawn) [Example 290, N-[(cyclopropyl-carbamoyl)methyl]-2-(2-methoxyethane-sulfonyl)-2-{6-[2-(trifluoromethyl)pyridin-4-yl]-1,3-benzothiazol-2-yl} acetamide]
12 | 37 | COCCS(=O)(=O)C(C(=O)NCC(=O)NC1CC1)c1nc2cc(C(F)(F)F)c(-c3ccn(C)c(=O)c3)cc2s1 (stereo not drawn) [Example 176, N-[(cyclopropyl-carbamoyl)methyl]-2-(2-methoxyethane-sulfonyl)-2-[6-(1-methyl-2-oxo-1,2-dihydropyridin-4-yl)-5-(trifluoromethyl)-1,3-benzothiazol-2-yl]acetamide]

More lines, now with the values behind:

Row | SMILES | IC50 [nM]
13 | CS(=O)(=O)C(C(=O)NCC(=O)NC1CC1)c1nc2cc(F)c(-c3ccc(C(N)=O)c(Cl)c3)cc2s1 (stereo not drawn) [Example 328, 2-chloro-4-[2-({[(cyclopropyl-carbamoyl)methyl]carbamoyl} (methanesulfonyl)methyl)-5-fluoro-1,3-benzothiazol-6-yl]benzamide] | 22
14 | COCCS(=O)(=O)C(C(=O)NCC(=O)NC1CC1)c1nc2cc(-c3cccc(C(=O)N4CCOCC4)c3)ccc2s1 (stereo not drawn) [Example 395, N-[(cyclopropyl-carbamoyl)methyl]-2-(2-methoxyethane-sulfonyl)-2-{5-[3-(morpholine-4-arbonyl)phenyl}-1,3-benzothiazol-2-yl}acetamide] | 4
15 | O=C(CNC(=O)C(c1nc2cc(-c3ccc(F)nc3)ccc2s1)S(=O)(=O)Cc1ccc(F)cc1)NC1CC1 (stereo not drawn) [Example 13, N-[(cyclopropyl-carbamoyl)methyl]-2-[(4-fluorophenyl)methanesulfonyl]-2-[5-(6-fluoropyridin-3-yl)-1,3-benzothiazol-2-yl]acetamide] | 15
16 | Cc1cc2nc(C(C(=O)NCC(=O)NC3CC3)S(=O)(=O)C(C)C)sc2cc1-c1ccc(=O)n(C(C)C)c1 (stereo not drawn) [Example 207, N-[(cyclopropyl-carbamoyl)methyl]-2-{5-methyl-6-[6-oxo-1-(propan-2-yl)-1,6-dihydropyridin-3-yl]-1,3-benzothiazol-2-yl}-2-(propane-2-sulfonyl) acetamide] | 10
17 | COC(=O)Nc1ccc(-c2cc3sc(C(C(=O)NCC(=O)NC4CC4)S(=O)(=O)N4CCOCC4)nc3cc2F)cc1F (stereo not drawn) [Example 488, methyl N-{4-[2-({[(cyclopropyl-carbamoyl)methyl]carbamoyl} (morpholine-4-sulfonyl)methyl)-5-fluoro-1,3-benzothiazol-6-yl]-2-fluorophenyl} carbamate] | 13
18 | CN(C)C(=O)Nc1ccc(-c2cc3sc(C(C(=O)NCC(=O)NC4CC4)S(=O)(=O)CCC(F)(F)F)nc3cc2F)cc1 (stereo not drawn) [Example 6, N-[(cyclopropyl-carbamoyl)methyl]-2-(6-{4-[(dimethyl-carbamoyl)amino]phenyl}-5-fluoro-1,3-benzothiazol-2-yl)-2-(3,3,3-trifluoropropane-sulfonyl) acetamide] | 3
19 | CC(C)S(=O)(=O)C(C(=O)NCC(=O)NC1CC1)c1nc2cc(F)c(-c3ccc4c(c3)C(=O)NC4)cc2s1 (stereo not drawn) [Example 239, N-[(cyclopropyl-carbamoyl)methyl]-2-[5-fluoro-6-(3-oxo-2,3-dihydro-1H-isoindol-5-yl)-1,3-benzothiazol-2-yl]-2-(propane-2-sulfonyl)acetamide] | 16
20 | CN(C)c1ccc(-c2ccc3nc(C(C(=O)NCC(=O)NC4CC4)S(=O)(=O)Cc4ccc(F)cc4)sc3c2)cn1 (stereo not drawn) [Example 224, N-[(cyclopropyl-carbamoyl)methyl]-2-{6-[6-(dimethylamino)pyridin-3-yl]-1,3-benzothiazol-2-yl}-2-[(4-fluorophenyl)methanesulfonyl] acetamide] | 86
21 | CC(=O)Nc1ccc(-c2ccc3nc(C(C(=O)NCC(=O)NC4CC4)S(C)(=O)=O)sc3c2)cc1 (stereo not drawn) [Example 102, N-[(cyclopropyl-carbamoyl)methyl]-2-[6-(4-acetamidophenyl)-1,3-benzothiazol-2-yl]-2-methanesulfonyl-acetamide] | 14
22 | COC(=O)Nc1ccc(-c2cc(Cl)c3nc(C(C(=O)NCC(=O)NC4CC4)S(C)(=O)=O)sc3c2)cc1F (stereo not drawn) [Example 124, methyl N-{4-[4-chloro-2-({[(cyclopropyl-carbamoyl)methyl]carbamoyl} (methanesulfonyl)methyl)-1,3-benzothiazol-6-yl]-2-fluorophenyl} carbamate] | 2
23 | CC(C)(O)Cn1cc(-c2ccc3nc(C(C(=O)NCC(=O)NC4CC4)S(C)(=O)=O)sc3c2)cn1 (stereo not drawn) [Example 109, N-[(cyclopropyl-carbamoyl)methyl]-2-{6-[1-(2-hydroxy-2-methylpropyl)-1H-pyrazol-4-yl]-1,3-benzothiazol-2-yl}-2-methanesulfonyl-acetamide] | 14
24 | CC(C)S(=O)(=O)C(C(=O)NCC(=O)NC1CC1)c1nc2c(F)cc(-c3ccc(N4CCCC4=O)cc3)cc2s1 (stereo not drawn) [Example 283, N-[(cyclopropyl-carbamoyl)methyl]-2-{4-fluoro-6-[4-(2-oxopyrrolidin-1-yl)phenyl]-1,3-benzothiazol-2-yl}-2-(propane-2-sulfonyl)acetamide] | 10

same assay, conditions: EL from conditioned media of HT-1080 cells; 30 min preincubation at 37° C.

Row | IC50 [nM] | SMILES
25 | 26 | O=C(CNC(=O)C(c1nc2ccc(-c3ccc(F)nc3)cc2s1)S(=O)(=O)Cc1ccccc1)NC1CC1 (stereo not drawn) [Example 55, N-[(Cyclopropylcarbamoyl)methyl]-2-[6-(6-fluoropyridin-3-yl)-1,3-benzothiazol-2-yl]-2-phenylmethanesulfonylacetamide]
26 | 4 | COCCS(=O)(=O)C(C(=O)NCC(=O)NC1CC1)c1nc2ccc(-c3ccc(F)nc3)cc2s1 (stereo not drawn) [Example 376, N-[(Cyclopropylcarbamoyl)methyl]-2-[6-(6-fluoropyridin-3-yl)-1,3-benzothiazol-2-yl]-2-(2-methoxyethanesulfonyl)acetamide]
27 | 3 | CS(=O)(=O)C(C(=O)NCC(=O)NC1CC1)c1nc2cc(F)c(-c3ccc(NC(=O)OCc4ccccc4)cc3)cc2s1 (stereo not drawn) [Example 1, Benzyl N-{4-[2-({[(cyclopropylcarbamoyl)methyl]carbamoyl}(methanesulfonyl)methyl)-5-fluoro-1,3-benzothiazol-6-yl]phenyl}carbamate]
